Measurements published in patent publication US7341867B2, “Human preprotachykinin gene promoter” (University of Medicine & Dentistry of New Jersey, priority 1999, dated 2008).

Legend:
BT474 = test: Clonogenic assay, proliferation of breast cancer cell line; type: cell-based; settings: 1 mM antagonist, 2 weeks; for # of colonies/10^3 cells (±SD): methyl cellulose matrix
Description: (§1) Clonogenic assays studied the proliferation of breast cancer cell lines. Duplicate cultures were performed with 10^3 cells/ml in 1.2% methylcellulose matrix that contained various concentrations (between about 100 to 0.001 mM) of NK-1, NK-2 or (NK-1+NK-2) antagonists. Baseline cultures contained media alone. For each cell line, the assay contained the appropriate culture media. Cultures were incubated for 2 wk at 37° C. This was followed by enumeration of colonies that contained more than 10 cells. In a highly preferred embodiment, the concentration of antagonist is 1 nM.
(§2) Increased expression of PPT-I and NK-1 in breast cancer cells (Tables 1 and 2) led to the next set of experiments. A functional role for these genes in breast cancer is established by determining whether PPT-I peptides, endogenously produced by breast cancer cells, can induce their proliferation through autocrine and/or paracrine mechanisms. This question was addressed in six different experiments using clonogenic assay. […] NK-1 or NK-2 antagonists blunted breast cancer cell proliferation by approximately […] when compared to cultures with media alone (Table 4). […] There was no significant difference (p>0.5) in cell proliferation when normal mammary epithelial cells (MCF12A and H5578Bst) were cultured with the antagonists. […] Reduced colony formation was not due to necrosis since >99% of the cells were trypan blue negative in suspension cultures, performed for two weeks with antagonists.

Du4475 = test: as above; type: cell-based; settings: 1 mM antagonist, 2 weeks; for # of colonies/10^3 cells (±SD): methyl cellulose matrix
Description: as §1, §2

MDAMB-330 = test: as above; type: cell-based; settings: 1 mM antagonist, 2 weeks; for # of colonies/10^3 cells (±SD): methyl cellulose matrix
Description: as §1, §2

T47D = test: as above; type: cell-based; settings: 1 mM antagonist, 2 weeks; for # of colonies/10^3 cells (±SD): methyl cellulose matrix
Description: as §1, §2

ZR7530 = test: as above; type: cell-based; settings: 1 mM antagonist, 2 weeks; for # of colonies/10^3 cells (±SD): methyl cellulose matrix
Description: as §1, §2

Hs578Bst = test: Clonogenic assay, nontransformed mammary epithelial cells; type: cell-based; settings: 1 mM antagonist, 2 weeks; for # of colonies/10^3 cells (±SD): methyl cellulose matrix
Description: as §1, §2

MCF12A = test: as above; type: cell-based; settings: 1 mM antagonist, 2 weeks; for # of colonies/10^3 cells (±SD): methyl cellulose matrix
Description: as §1, §2

β-PPT-I mRNA = test: Quantitative RT-PCR in stimulated bone marrow stroma; type: cell-based, human; settings: for β-PPT-I (molecules/μg total RNA): 8 ng/ml SCF and/or 10 nM CP-99,994
Description: (§3) In a second embodiment of the present invention, bone marrow stroma was stimulated in serum-free α-MEM supplemented with Insulin-transferrin-selenium-A (Life Technologies). Quantitative RT-PCR with total RNA, extracted from bone marrow stroma and construction of standard DNA was performed as described in Singh, D., supra. The end sequences of the standard DNA contained gene-specific sequences that are complementary for the reaction primers. The primers in the standard DNA flank neutral DNA. Total RNA (2 μg) was reverse transcribed and 200 ng cDNA used in PCR with specific oligonucleotide primers for PPT-I, NK-1 or NK-2. Standard DNA, log10 fold dilutions, ranged between 10^−2 to 10^−6 attomole/L. Each unknown sample was assayed with a particular concentration of standard DNA in the same reaction tube. PCR products (10 μl) were separated by electrophoresis on 1.5% agarose containing ethidium bromide and the densities of the DNA bands quantitated with a Fluorimager (Molecular Dynamics, Sunnyvale, Calif.) and then analyzed with ImageQuant software. A standard curve was established for each unknown sample: band densities of unknown/standard DNA vs. Log10 standard DNA concentration was used to determine the concentration of RNA molecules in the unknown samples. The concentration of the unknown sample was selected at the concentration in which the ratio of the unknown and standard were equivalent.
(§4) Transfected bone marrow stroma was stimulated with optimal concentrations of IL-1α (2.5 ng/ml), SCF (8 ng/ml) or 1 nM substance P, SP (Sigma, St Louis, Mo.) and/or 10 nM NK-1-specific antagonist (CP-99,994) in α-MEM with 2% FCS. In other embodiments, bone marrow stroma was stimulated with 5 μg/ml forskolin, FK (Sigma) for 2 and 5 h. SCF was purchased from R&D Systems (Minneapolis, Minn.) and IL-1α was obtained from Hoffman LaRoche, Nutley, N.J. Pfizer, Inc. (Groton, Conn.) provided CP-99,994. Substance P and CP-99,994 were dissolved and stored as described in Ramewshwar et al (1996), supra. Optimal parameters were determined with dose-response and time-course studies.
Confluent bone marrow stroma was stimulated with 25 ng/ml rhIL-1α or 10 ng/ml SCF for 24 h. Poly A RNA was isolated from total RNA by selection (2×) on oligo-dT cellulose (Life Technologies). The cellulose column was washed once with 10 mM Tris, pH 7.0; 0.5 M NaCl; […] and once with 10 mM Tris, pH 7.0; 0.2 M NaCl; […]. Poly A RNA was eluted with 10 mM Tris (pH 7.0) and […]. RNA was precipitated by standard techniques and then resuspended in DEPC-treated water. The purity was verified by the absence of rRNA.

[1] = test system: PPT-I promoter (Upstream/N0); test: Luciferase reporter gene assay, pGL3-Upstream/N0 in transfected bone marrow stroma; type: cell-based, human
Description: as §4
pGL3-basic with inserts of different fragments from PPT-I-p1.2 was co-transfected with pβ-gal-Control (0.5 μg each) in 80% confluent bone marrow stroma using SuperFect (Qiagen, Valencia, Calif.). After 48 h cells were scraped in 30 μl 250 mM Tris (pH 8.0) and then lysed by freezing and thawing in a dry ice/ethanol bath. Cell-free lysates (24 μl) were obtained by centrifugation at 15,000 g for 5 min at 4° C. and then diluted with 5× cell culture lysis buffer (Promega). Luciferase and β-gal activities were quantitated with 10 μl of lysates using Luciferase assay system (Promega) and Luminescent β-galactosidase detection kit II (Clontech) respectively. In the experimental model, the ratios of Luciferase/β-gal in cells transfected with vector alone ranged from 0.18 to 0.19 and was normalized to 1. Because cytokines induce the promoter upstream of β-gal, in cytokine-stimulated cells, luciferase activity was presented/mg of total protein the levels normalized with stroma transfected with vector alone. Total protein was determined using standard techniquees well known in the art.
Mutations were performed with a mutagenesis kit (Stratagene, La Jolla, Calif.). The desired mutant sequences (Table 1) were synthesized within 40 nt in the forward and reverse directions and then used in PCR with pGL3 containing wild type Upstream/N0. After PCR amplification, mutation was verified by identification of Apa L1 within CRE-like mutant and the loss of Xho 1 in CRE mutant.

NK-1 mRNA = test: Quantitative RT-PCR in stimulated bone marrow stroma; type: cell-based, human; settings: BM stroma; 8 ng/ml SCF or 2.5 ng/ml IL-1a; 16 h; serum-free α-MEM
Description: as §3, §4

NK-2 mRNA = test: as above; type: cell-based, human; settings: BM stroma; 8 ng/ml SCF or 2.5 ng/ml IL-1a; 16 h; serum-free α-MEM
Description: as §3, §4

Molecule: COc1ccccc1CN[C@H]1C2CCN(CC2)[C@H]1C(c1ccccc1)c1ccccc1 [CP96,345]
- percentage of cells cultured in media alone (BT474): 39%
- # of colonies/10^3 cells (±SD) (BT474): 70 ± 5 colonies/10^3 cells
- percentage of cells cultured in media alone (Du4475): 39%
- # of colonies/10^3 cells (±SD) (Du4475): 63 ± 6 colonies/10^3 cells
- percentage of cells cultured in media alone (MDAMB-330): 38%
- # of colonies/10^3 cells (±SD) (MDAMB-330): 65 ± 5 colonies/10^3 cells
- percentage of cells cultured in media alone (T47D): 40%
- # of colonies/10^3 cells (±SD) (T47D): 60 ± 4 colonies/10^3 cells
- percentage of cells cultured in media alone (ZR7530): 41%
- # of colonies/10^3 cells (±SD) (ZR7530): 68 ± 8 colonies/10^3 cells
- # of colonies/10^3 cells (±SD) (Hs578Bst): 201 ± 12 colonies/10^3 cells
- percentage of cells cultured in media alone (MCF12A): (94%)
- # of colonies/10^3 cells (±SD) (MCF12A): 198 ± 18 colonies/10^3 cells

Molecule: COc1ccccc1CN[C@H]1CCCN[C@H]1c1ccccc1 [CP-99,994]
- reduction of SP-induced β-PPT-I (β-PPT-I mRNA; 10 nM CP-99,994, 1 nM SP): 7 fold
- β-PPT-I (molecules/μg total RNA) (β-PPT-I mRNA; BM stroma, 1 nM SP, 16 h): <1 molecules/μg total RNA
- effect on induction of endogenous PPT-I by SCF (β-PPT-I mRNA; BM stroma, SCF + CP-99,994): bluned
- luciferase activity in SCF-stimulated cells in the presence of the antagonist ([1]; 10 nM CP-99,994, SCF-stimulated transfected stroma): significantly reduced
- luciferase activity, antagonist alone compared to transfectants with vector alone ([1]; antagonist alone): did not affect

Molecule: CC(=O)NC1(c2ccccc2)CCN(CC[C@H](CN(C)C(=O)c2ccccc2)c2ccc(Cl)c(Cl)c2)CC1 [SR48968]
- percentage of cells cultured in media alone (BT474): 36%
- # of colonies/10^3 cells (±SD) (BT474): 65 ± 8 colonies/10^3 cells
- percentage of cells cultured in media alone (Du4475): 38%
- # of colonies/10^3 cells (±SD) (Du4475): 60 ± 5 colonies/10^3 cells
- percentage of cells cultured in media alone (MDAMB-330): 38%
- # of colonies/10^3 cells (±SD) (MDAMB-330): 64 ± 4 colonies/10^3 cells
- percentage of cells cultured in media alone (T47D): 43%
- # of colonies/10^3 cells (±SD) (T47D): 65 ± 7 colonies/10^3 cells
- percentage of cells cultured in media alone (ZR7530): 36%
- # of colonies/10^3 cells (±SD) (ZR7530): 60 ± 10 colonies/10^3 cells
- percentage of cells cultured in media alone (Hs578Bst): 105%
- # of colonies/10^3 cells (±SD) (Hs578Bst): 210 ± 11 colonies/10^3 cells
- percentage of cells cultured in media alone (MCF12A): 95%
- # of colonies/10^3 cells (±SD) (MCF12A): 200 ± 9 colonies/10^3 cells

Molecule: substance P (RPKPQQFFGLM) [SP, major PPT-I peptide, preferred ligand for NK-1 (Sigma)]
- β-PPT-I (molecules/μg total RNA) (β-PPT-I mRNA; BM stroma, 1 nM SP, 16 h): 284 ± 12 molecules/μg total RNA

B1: IL-1a: cytokine IL-1α obtained from Hoffman LaRoche (protein, UniProt P01583 113-271, looked up)
Interleukin-1 alpha: SAPFSFLSNVKYNFMRIIKYEFILNDALNQSIIRANDQYLTAAALHNLDEAVKFDMGAYKSSKDDAKITVILRISKTQLYVTAQDEDQPVLLKEMPEIPKTITGSETNLLFFWETHGTKNYFTSVAHPNLFIATKQDYWVCLAGGPPSITDFQILENQA
- β-PPT-I mRNA (β-PPT-I mRNA; BM stroma, 8 ng/ml SCF or 2.5 ng/ml IL-1a, 16 h, serum-free α-MEM): 4849 ± 121 Molecules/μg total RNA
- molecules of β-PPT-I/μg poly A (β-PPT-I mRNA; poly A RNA from stroma stimulated with 25 ng/ml rhIL-1α or 10 ng/ml SCF for 24 h, n=6): 250,100±980 molecules of β-PPT-I/μg poly A
- NK-1 mRNA (NK-1 mRNA): 8106 ± 91 Molecules/μg total RNA
- NK-2 mRNA (NK-2 mRNA): 968 ± 26 Molecules/μg total RNA
- increase in luciferase activities compared to unstimulated cells ([1]; pGL3-Upstream/N0 wild type, optimal SCF or IL-1a, 10 h): 3 fold
- induction of luciferase in cells transfected with the double mutants ([1]; pGL3-Upstream/N0 with mutant CRE and CRE-like): no significant induction
